Measurements as given in US20240400986A1, “MEMBRANE BOUND COMPOSITIONS AND METHODS RELATING TO SAME” (FLAGSHIP PIONEERING INNOVATIONS VII, LLC, priority 2021, published 2024).
Peptide text beside a SMILES is read from it. * marks the point of attachment. Cbz = O=C(OCc1ccccc1)*

Experiments:
[1] = tested on: neuronal cells; assay: Gigasome-mediated extraction of APP-CTFs upon γ-secretase and proteasome inhibition (fixed plates, confocal); type: cell-based, human
Experimental: Cells were treated with the γ-secretase inhibitor L-685,458 at 5 μM, either alone or in combination with the proteasome inhibitor MG-132 at 0.1 μM. A vehicular control amount of DMSO was added to the media to comparatively study cargo signals within cells and gigasomes. Treatments were carried out in reduced serum-containing media (3% FBS) for 24 hours. Disease-related cargo presence within cells and in gigasomes was characterized and quantified by confocal microscopy analysis of 4% paraformaldehyde fixed cells, following (immuno)fluorescent labeling of cytosolic, nuclear and cargo-specific protein markers. In some experiments β-III tubulin and Alexa Fluor® 488 phalloidin were used to mark the cytosol and proximal plasma membrane, respectively. To detect APP-CTFs, an antibody against the C-terminus of APP (C-APP) was used (see Table 12). Non-specific labeling was blocked by incubation with 5% normal goat serum in PBS in the presence of 0.05% saponin, for 1 h at room temperature. Primary antibodies were incubated overnight at 4° C., followed by incubation with Alexa Fluor®-conjugated secondary antibodies for 1 hour at room temperature. Nuclei were counterstained with DAPI.
A range of 5-8 images per well were taken from replicate experiments to capture a final total range of 150-200 cells. […] The cellular cargo fluorescence intensity in the red channel was quantified by subtracting the background signal from each image, using the ImageJ built-in “subtract background” function with a default rolling ball radius of 50 pixel. The cargo signal (integrated density) in the red channel was measured and normalized to the number of nuclei counted in each field. […]
For particle analysis, the cytosolic and F-actin/membrane signals were merged into single RGB image, converted to grayscale and then thresholded to create a cellular mask of objects in the field of view, as calculated by the “Li” autothreshold algorithm. […] The quantity or distribution of objects obtained from the particle analysis was divided by the number of cells counted in each field to obtain a normalized quantity or distribution.

[2] = tested on: cardiomyocytic cell line derived from human ventricular heart tissue; assay: Cell viability in cardiomyocyte compound screen (CellTiter-Glo); type: cell-based; conditions: human, 24 h
Text: Cells were stained with Hoechst 34580, CellTracker Green/CellMask Green Actin and MitoTracker Deep Red to detect nuclear material, cytoplasm/F-actin, and mitochondria, respectively, and cultured in poly-L-lysine-coated 96-well glass bottom plates at 15,800 cells/cm^2 and allowed to adhere overnight. For the screening, a total of 100 randomly organized compounds (TargetMol) were divided in 5 groups. Each group included an untreated condition, a vehicular DMSO control, and a known high-gigasome producing condition to comparatively study gigasome production rates. As a cell death control group, 500 nM Staurosporine was added to induce apoptosis. Cultures were incubated for 24 hours under gigasome inducing conditions at concentrations ranging between 10 nM and 10,000 nM. […] Cells remaining in the 96-well plates were assessed for viability using CellTiter-Glo (Promega).

[3] = tested on: neuronal cell line derived from human neuroblastoma; conditions: neuronal cells, dose 100 nM, 24 hours
[4] = tested on: neuronal cells; assay: Gigasome-mediated extraction of stress granule-associated protein HuR (fixed plates, confocal); type: cell-based, human
Experimental: For this paradigm, cells were treated with a low sodium arsenite concentration of 5 μM either alone or in combination with the proteasome inhibitor MG-132 at 0.2 μM. A vehicular control amount of DMSO was added to the media to comparatively study cargo signals within cells and gigasomes. Treatments were carried out in reduced serum-containing media for 24 hours to mimic a chronic exposure to arsenite. The presence of the stress-granule-related cargo within cells and in gigasomes was characterized and quantified by confocal microscopy analysis of 4% paraformaldehyde. Non-specific labeling was blocked by incubation with 5% normal goat serum in PBS in the presence of 0.1% Triton X-100, for 2 h at room temperature, followed by immunolabeling with an antibody against the RNA-binding protein HuR (see Table 12) and incubation with Alexa Fluor® 568 secondary antibodies. Phalloidin Alexa Fluor® 488 was used to mark the proximal plasma membrane. Nuclei were counterstained with DAPI.
Images were captured using a Zeiss LSM 900 confocal microscope and a 40× objective. For analysis, 10×16-bit images per well were processed to obtain a final total range of 75-200 cells. Composite images were separated in the different channels. The background was subtracted from the red cargo-related channel, as described in Example 13a. The nuclear signal in the blue channel was thresholded using the “Yen” autothreshold algorithm. To measure the nuclear-to-cytosolic translocation of the stress-granule-related protein cargo upon treatment, firstly, the cargo-related nuclear signal was subtracted from the respective red channel image by creating a nuclear selection from the thresholded blue channel image, which was added to ImageJ Manager. The nuclear selection was then transferred to the background-subtracted red channel and the nuclear cargo signal was removed from the image leaving only the cytosolic signal. The cleared red channel image was thresholded using the “default” autothreshold algorithm for downstream particle analysis. To measure the cytosolic cargo signal, a cellular mask was then generated by thresholding the Green/F-actin channel using the “Li” autothreshold method. A cytosolic selection was created, added to ImageJ Manager, and transferred to the background subtracted, nuclear-cleared red channel image. The cytosolic cargo signal (integrated density) was measured and normalized to the number of nuclei counted in each field. Particle analysis was performed as described in Example 13a, using the thresholded green channel to identify particles of interest by filtering by area and circularity and re-directing to the blue and red channel for absence of nuclear signal and eventual presence of disease-related cargo, respectively. The quantity or distribution of objects obtained from the particle analysis was obtained as described in Example 13a.

[5] = tested on: neuronal cell line derived from human neuroblastoma; assay: Small molecule compound screen of gigasome production in neuronal monocultures
[6] = tested on: cardiomyocytic cell line derived from human ventricular heart tissue; assay: Small molecule compound screen of gigasome production in cardiomyocytic monocultures; conditions: for Number of Gigasomes Produced: Table 22, cardiomyocytes, 24 hours;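 on all read-outs here: gigasomes shed into the culture medium were imaged by confocal microscopy and counted as round particles lacking nuclear signal, extrapolated to the whole well, fold change is relative to DMSO vehicle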
[7] = Homo sapiens, Cardiomyocyte, 24 h, read-out: Fold Change of Gigasomes Produced vs. DMSO

With `CC(C)C[C@@H](C=O)NC(=O)[C@H](CC(C)C)NC(=O)[C@H](CC(C)C)NC(=O)OCc1ccccc1` [MG-132, reference compound] (Cbz-Leu-Leu-Leu-aldehyde) the “C-APP+ve particle intensity distribution (gigasome diameter and brightness)” value ([1]; compared to γ-secretase inhibitor and DMSO conditions (FIG. 6D)) was “larger in diameter and brighter”, the “intracellular APP-CTF levels (C-APP immunoreactivity)” value ([1]; γ-secretase inhibitor 5 μM, MG-132 0.1 μM, alone or combined, 24 h, compared to DMSO) was “does not increase” and the Viability ([2]; 10 nM) was 100%. For the same compound, the Viability ([2]; 100 nM) was 50-75%, the Viability [3] was 50-75% and the HuR cytosolic signal ([4]; 5 μM sodium arsenite, 0.2 μM MG-132, alone or combined, 24 h, compared to DMSO (FIG. 7B)) was “increased”. The “HuR+ve particle intensity distribution (gigasome diameter and brightness)” value ([4]; FIG. 7E) was “larger in diameter and brighter”, the “HuR average intensity within gigasomes” value ([4]; compared to sodium arsenite alone and DMSO (FIG. 7D)) was “higher” and the fold induction at 0.1 µM ([5]; Homo sapiens, 24 h, read-out: Fold Change of Gigasomes Produced vs. DMSO) was 1.5 to 1.75. The “Number of Gigasomes Produced” value ([5]; neuronal cells, dose 100 nM, 24 hours) was 55-65, the fold induction at 0.01 µM [6, 7] was 1.5 to 1.75 and the fold induction at 0.1 µM [6, 7] was over 4. The “Number of Gigasomes Produced” value ([6]; dose 10 nM) was 150-175 and the “Number of Gigasomes Produced” value ([6]; dose 100 nM) was over 400.
